How the values were obtained:
[1] = test system: MDA-MB-435 breast carcinoma; test: Anchorage Dependent Growth Monolayer Assay (ADGMA), MTS readout; assay type: cell-based; settings: average ± S.D., 3-day exposure, A490
Text: As indicated above, all of the compounds of formula I, and their corresponding pharmaceutically acceptable acid addition salts, are anti-tumor agents and are, therefore, useful in inhibiting the growth of various lymphomas, sarcomas, carcinomas, myelomas, and leukemia cell lines. […] This assay was adapted from the 60 cell line assay used by the National Cancer Institute (NCI) with the following modifications: 1) a single cell line representative for the important tumor type, viz., MDA-MB-435 breast carcinoma was utilized; 2) a tetrazolium derivative, viz., MTS, was utilized to determine cell density.
The ADGMA compares the number of viable cells following a 3-day exposure to a test compound relative to a number of cells present at the time the test compound was added. […] The absorbance at 490 nm (A490) of the formazan derivative is proportional to the number of viable cells. The IC50 for a test compound is the concentration of compound required to reduce the final cell number to 50% of the final control cell number. If cell proliferation is inhibited, the assay further defines compounds as cytostatic (cell number after 3-day compound incubation >cell number at time of compound addition) or cytotoxic (cell number after 3-day compound incubation <cell number at time of compound addition).
The MDA-MB-435 breast carcinoma line was obtained from the American Type Culture Collection (ATCC) and used between passages 4-20 following thawing. MDA-MB-435 breast carcinoma was maintained and plated in DME/F12 medium containing 10% fetal bovine serum, 15 mM HEPES (pH=7.4), penicillin 100 units/mL, and streptomycin 100 µg/mL.
Cell lines are trypsinized and counted using a Coulter counter to determine plating densities. Cells are then plated in their respective maintenance media (100 µL/well) in 96 well plates at the following densities: MDA-MB-435, 3,000 cells/well. The number of cells plates as determined in preliminary experiments, results in cell densities of 75-90% of confluency by 4 days after plating. Initial cell densities, assayed one day after plating, are roughly 0.15-0.20 absorbance units greater than the media blank. Ninety-six well plates are seeded on day 0 and the test compounds are added on day 1. A control plate is created for each cell line that receives media only in row A and cells in row B. One day following plating, test compounds are added (in a final volume of 100 µL) to the test plates. Control plates receive 10 µL MTS mixture (prepared fresh on day of addition to cell plates at a ratio of 10 µL of a 0.92 mg/mL solution of PMS to a 190 µL of a 2 mg/mL solution of MTS) and 100 µL media. A490 of control plates is read 4h after MTS addition to determine initial cell density values for each cell line. Three days after addition of test compound, 10 µL/well of MTS mixture is added to the test plates and A490 is read 4h later. A490 values for wells containing cells are corrected for media absorbance, then normalized to initial density readings to determine percent net growth. IC50 values are determined from graphs of percent net growth as a function of compound concentration. Percent net growth is calculated as (Cell + Drug A490 - Initial A490/Cell + Drug Vehicle A490 - Initial A490).

[2] = test system: MDA-MB-435 tumor xenografts; test: Human tumor xenograft growth inhibition in athymic nude mouse model; assay type: in vivo, athymic (nu/nu) mice; settings: 3X/week for 3 weeks; for response vs control in vivo at 10 µmol/kg / response vs control in vivo at 33 µmol/kg: Mus musculus, MDA-MB-435, iv, 504 h, * = statistically significant (p=<0.05), read-out: %T/C
Description: The histologic tumor type employed was MDA-MB-435 breast carcinoma.
Positive controls are carried out with doxorubicin administered 3 times per week i.v.
Anti-tumor activity was expressed as %T/C (Δ MTV of treated group ö Δ MTV of control group X100).

Molecule	IC50 ([1]; Homo sapiens, MDA-MB-435, 72 h) [nM]	Dead/Total ([2]; 10 µmol/kg i.v.)	Δ MTV ([2]; 10 µmol/kg i.v.) [mm^3]	Dead/Total ([2]; 33 µmol/kg i.v.)	Δ MTV ([2]; 33 µmol/kg i.v.) [mm^3]	response vs control in vivo at 10 µmol/kg ([2]; 10 µmol/kg i.v.) [%]	response vs control in vivo at 33 µmol/kg ([2]; 33 µmol/kg i.v.) [%]	IC50 [1] [nM]
CO[C@@H](C(=O)N[C@H]1CC[C@@H](OC(=O)C2CCCCCC2)CNC1=O)[C@H](O)[C@@H](O)[C@H](O)/C=C/C(C)(C)C [Ex. 3]	32 ± 14	0/8	69	0/8	49	39	28	–
CO[C@@H](C(=O)N[C@H]1CC[C@@H](OC(=O)CCc2cccnc2)CNC1=O)[C@H](O)[C@@H](O)[C@H](O)/C=C/C(C)(C)C [Ex. 5, (2R, 3R, 4S, 5R, 6E)-3,4,5-trihydroxy-2-methoxy-8,8-dimethyl-N-[(3S, 6R)-hexahydro-2-oxo-6-(1-oxo-3-[3-pyridyl]propoxy)-2H-azepin-3-yl]non-6-enamide]	465 ± 204	0/8	130	0/8	62	92	44	–
CO[C@@H](C(=O)N[C@H]1CC[C@@H](OC(=O)CC2CCCCC2)CNC1=O)[C@H](O)[C@@H](O)[C@H](O)/C=C/C(C)(C)C [Ex. 6, (2R, 3R, 4S, 5R, 6E)-3,4,5-trihydroxy-2-methoxy-8,8-dimethyl-N-[(3S, 6R)-hexahydro-2-oxo-6-(cyclohexylmethylcarbonyl)oxy-2H-azepin-3-yl]non-6-enamide]	65 ± 1	0/8	66	0/8	48	47	34	–
CO[C@@H](C(=O)N[C@H]1CC[C@@H](OC(=O)Cc2ccccc2)CNC1=O)[C@H](O)[C@@H](O)[C@H](O)/C=C/C(C)(C)C [Ex. 7, (2R, 3R, 4S, 5R, 6E)-3,4,5-trihydroxy-2-methoxy-8,8-dimethyl-N-[(3S, 6R)-hexahydro-2-oxo-6-(1-oxo-2-phenylethoxy)-2H-azepin-3-yl]non-6-enamide]	262 ± 70	0/8	101	0/8	61	72	43	–
CO[C@@H](C(=O)N[C@H]1CC[C@@H](OC(=O)Cc2ccc(Cl)c(Cl)c2)CNC1=O)[C@H](O)[C@@H](O)[C@H](O)/C=C/C(C)(C)C [Ex. 8, (2R, 3R, 4S, 5R, 6E)-3,4,5-trihydroxy-2-methoxy-8,8-dimethyl-N-[(3S, 6R)-hexahydro-2-oxo-6-(1-oxo-2-[3,4-dichlorophenyl]ethoxy)-2H-azepin-3-yl]non-6-enamide]	175 ± 7	0/8	87	0/8	94	62	67	–
COc1ccc(CC(=O)O[C@@H]2CC[C@H](NC(=O)[C@H](OC)[C@H](O)[C@@H](O)[C@H](O)/C=C/C(C)(C)C)C(=O)NC2)cc1 [Ex. 9, (2R, 3R, 4S, 5R, 6E)-3,4,5-trihydroxy-2-methoxy-8,8-dimethyl-N-[(3S, 6R)-hexahydro-2-oxo-6-(1-oxo-2-[4-methoxyphenyl]ethoxy)-2H-azepin-3-yl]non-6-enamide]	335 ± 141	0/8	107	0/8	68	76	48	–
CO[C@@H](C(=O)N[C@H]1CC[C@@H](OC(=O)Cc2ccsc2)CNC1=O)[C@H](O)[C@@H](O)[C@H](O)/C=C/C(C)(C)C [Ex. 13, (2R, 3R, 4S, 5R, 6E)-3,4,5-trihydroxy-2-methoxy-8,8-dimethyl-N-[(3S, 6R)-hexahydro-2-oxo-6-(1-oxo-3-[3-thiophenyl]ethoxy)-2H-azepin-3-yl]non-6-enamide]	–	–	–	–	–	–	–	300
(2R, 3R, 4S, 5R, 6E)-3,4,5-trihydroxy-2-methoxy-8,8-dimethyl-N-[(3S, 6R)-hexahydro-2-oxo-6-(1-oxo-3-[3-indolyl]ethoxy)-2H-azepin-3-yl]non-6-enamide [Ex. 14]	–	–	–	–	–	–	–	1240 ± 200

Source: patent EP1131297B1, “CERTAIN SUBSTITUTED CAPROLACTAMS, PHARMACEUTICAL COMPOSITIONS CONTAINING THEM AND THEIR USE IN TREATING TUMORS” (Novartis AG, priority 1998, dated 2000)
